From ChEMBL document CHEMBL4765411, “Discovery of 2-(2-aminobenzo[d]thiazol-6-yl) benzo[d]oxazol-5-amine derivatives that regulated HPV relevant cellular pathway and prevented cervical cancer from abnormal proliferation” (Eur J Med Chem, 2020)

Legend:
HeLa [1] = experiment: Antiproliferative activity against human HeLa cells assessed as growth inhibition at 20 uM viability after 72 hrs by SRB assay relative to control; format: functional; settings: read-out: GI
HeLa [2] = experiment: Antiproliferative activity against human HeLa cells assessed as growth inhibition at 1 uM viability after 72 hrs by SRB assay relative to control; format: functional; settings: read-out: GI
HeLa [3] = experiment: Antiproliferative activity against human HeLa cells assessed as reduction in cell viability after 72 hrs by SRB assay; format: functional, cell-based

IC50 (HeLa [3]) [µM] | Structure (SMILES) | inhibition of growth at 20 µM (HeLa [1]) [%] | inhibition of growth at 1 µM (HeLa [2]) [%]
– | c1ccc(-c2nc3ccccc3s2)cc1 [2-PHENYLBENZO[D]THIAZOLE] | 2.6 | –
– | Nc1ccc2nn(-c3ccccc3)nc2c1 | 53 | –
– | C[S+]([O-])c1ccc2nc(N)sc2c1 (centres undefined) | 9.1 | –
– | Cc1nc2cc(N)ccc2s1 | 6.1 | –
– | COc1ccc(-c2nc3ccccc3s2)cc1 | 0.1 | –
– | Nc1cccc(-c2nc3ccccc3[nH]2)c1 | 0 | –
– | Nc1ccc2nc(N)sc2c1 | 6.9 | –
– | CN(C)c1ccc(-c2nc3cc(N)ccc3o2)cc1 | 8.9 | –
– | COc1ccc(-c2nc3cc(N)ccc3o2)cc1OC | 2.3 | –
6 | c1ccc2oc(-c3ccc4ncsc4c3)nc2c1 | 49.2 | 17.6
– | Nc1cc(N)cc(-c2nc3ccccc3[nH]2)c1 | 34.5 | –
– | N#Cc1ccc(-c2nc3ccccc3s2)cc1 | 10.8 | –
– | FC(F)(F)c1ccc(-c2nc3ccccc3s2)nn1 | 9.7 | –
– | Nc1ccc(-c2nc3ccccc3[nH]2)cc1 | 1.9 | –
– | Nc1ccc2sc(N)nc2c1 | 9.6 | –
– | Nc1ccc2oc(-c3cc(Cl)ccc3Cl)nc2c1 | -0.2 | –
– | Nc1nc2ccc(-c3nc4ccccc4s3)cc2s1 | 47.8 | –
– | Nc1ccc2oc(-c3cccnc3)nc2c1 | 1.3 | –
– | Oc1ccccc1-c1nc2ccccc2s1 | 8.1 | –
– | Nc1ccc(O)c(-n2nc3ccc(N)cc3n2)c1 | 7.1 | –
– | CC[n+]1ccccc1-c1nc2ccccc2s1 | 2.1 | –
– | Nc1ccc(-c2nc3ccccc3[nH]2)c(N)c1 | 0.2 | –
– | COc1cccc2sc(N)nc12 | 0.6 | –
– | C[n+]1ccccc1-c1nc2ccccc2s1 | 1.2 | –
– | Nc1ccc2oc(-c3ccccc3F)nc2c1 | 42.4 | –
7.08 | Nc1ccc2oc(-c3ccc4ncsc4c3)nc2c1 | 58 | 20.3
– | Nc1ccc2oc(-c3cc(I)ccc3Cl)nc2c1 | 26.5 | –
– | O=C(Nc1nc2ccccc2s1)c1cccnc1Cl | 5.5 | –
– | Nc1ccc(-c2nc3cc(N)ccc3o2)cc1 | 1.2 | –
– | Nc1ccc2oc(-c3ccc(Cl)cc3Cl)nc2c1 | 6 | –
